Measurements published in patent US20250100963A1, “SULFONATED AND PHOSPHORYLATED AROMATIC MOLECULES” (Xavier University of Louisiana, priority 2023, published 2025).
Like-named read-outs stand apart in the source and are kept apart here.

Legend:
Type in all cases: biochemical
CatG [1] = target: T1, CatG (Homo sapiens, UniProt P08311); experiment: Direct inhibition of human CatG, chromogenic substrate hydrolysis assay
T1 sequence (P08311 21-244): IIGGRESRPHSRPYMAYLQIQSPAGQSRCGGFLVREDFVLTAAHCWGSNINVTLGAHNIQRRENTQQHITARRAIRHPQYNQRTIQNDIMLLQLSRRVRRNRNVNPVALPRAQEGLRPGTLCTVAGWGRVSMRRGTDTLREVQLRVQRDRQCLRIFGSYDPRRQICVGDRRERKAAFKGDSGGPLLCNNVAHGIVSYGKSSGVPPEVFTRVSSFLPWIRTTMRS
Method: The method further comprises inhibition of proteases. […] To each well of a 96-well microplate containing 88 μl of 20 mM tris buffer containing 100 mM NaCl, 2.5 mM CaCl2, 0.1% PEG 8000 and 0.05% tween 80 was added 3 μl of CatG (final concentration of 30 nM), and 5 μl of H2O or potential inhibitor (final concentration of 0-100 μM). Following a 5-min incubation, 3 μl of CatG substrate was added (final concentration 750 μM) and the residual CatG activity was obtained from the initial rate of increase of absorbance at 405 nm. The relative residual activity of CatG at each of the inhibitor concentrations was obtained from the ratio of CatG activity in the presence and absence of the inhibitor. Logistic Equation (1) was used to plot the dose-dependence curve to obtain the IC50 (potency) and efficacy of CatG inhibition. Here, Y is the ratio of residual CatG activity in the presence of inhibitor to that in its absence, YO and YM are the minimum and maximum values of fractional residual CatG activity, respectively, IC50 is the concentration of the inhibitor that results in 50% inhibition of CatG activity and HS is the Hill slope.
To each well of a 96-well microplate containing 88 μl of 20 mM tris buffer containing 100 mM NaCl, 2.5 mM CaCl2, 0.1% PEG 8000 and 0.05% tween 80 was added 3 μl of CatG (final concentration of 30 nM), and 5 μl of H2O or potential inhibitor (final concentration of 0-100 μM). Following a 5-min incubation, 3 μl of CatG substrate was added (final concentration 750 μM) and the residual CatG activity was obtained from the initial rate of increase of absorbance at 405 nm. The relative residual activity of CatG at each of the inhibitor concentrations was obtained from the ratio of CatG activity in the presence and absence of the inhibitor. Logistic Equation (1) was used to plot the dose-dependence curve to obtain the IC50 (potency) and efficacy of CatG inhibition. Here, Y is the ratio of residual CatG activity in the presence of inhibitor to that in its absence, YO and YM are the minimum and maximum values of fractional residual CatG activity, respectively, IC50 is the concentration of the inhibitor that results in 50% inhibition of CatG activity and HS is the Hill slope.

CatG [2] = target: T1, CatG; experiment: Salt-dependent direct inhibition of human CatG; settings: for HS (Hill slope) / IC50 / ΔY (efficacy): pH 7.4, 37° C.; for Ki: estimated by IC50 to Ki conversion, noncompetitive model, read-out: Calculated Ki
Source text: The Ki (μM) values were estimated using an IC50 to Ki conversion equation [19].
Although the sulfonated and/or phosphorylated compounds-CatG interaction is likely to be electrostatically driven, non-ionic forces may contribute to a significant extent. A significant non-ionic binding energy component increases the interaction specificity because the majority of non-ionic forces, for example, cation—π interactions, H-bonding and others depend strongly on the orientation and the distance of interacting pair of molecules. In contrast, ionic bonds are non-directional and less dependent on distance, which may increase initial interaction but offer less selectivity of recognition. […] The IC50 values were measured spectrophotometrically under various salt concentrations (100 and 200 mM), as described above. […] Subsequently, the corresponding Ki (nM) values were estimated using a formula previously reported following a classical model of noncompetitive enzyme inhibition and the results are reported below. […] Table 4 and FIG. 4.

CatG [3] = target: T1, CatG; experiment: CatG-mediated degradation of laminin, SDS-PAGE; settings: inhibitor 10-1000 μM, CatG 0.8 μM, 60 min
Method: The method further comprises inhibition of CatG-mediated degradation of laminin. Inhibition of CatG cleavage of laminin by sulfonated or phosphorylated compounds was studied using SDSPAGE. Briefly, CatG (0.8 μM) was incubated with different concentrations of the inhibitor (final concentrations; 0 μM, 10 μM, […] and 1000 μM), and laminin (20 μg). Following incubation for 60 min, the samples were quenched using SDS-PAGE loading buffer containing DTT and subjected to electrophoresis on 10% SDS-PAGE pre-cast gels. The gels were visualized by silver staining. […] In fact, based on their in vitro properties, it was reasoned that these inhibitors could protect extracellular matrix components from proteolysis mediated by proteinases activated during the inflammatory process including CatG. Accordingly, the in vitro effect of compound of Formula II on the CatG-mediated proteolysis of laminin, a non-collagenous component of ECM and basement membranes was studied. […] Thus, SDS-PAGE analyses indicate that sulfonated molecule inhibition of CatG is physiologically relevant.
Inhibition of CatG cleavage of laminin by sulfonated compounds was studied using SDSPAGE. Briefly, CatG (0.8 μM) was incubated with different concentrations of the inhibitor (final concentrations; 0 μM, 10 μM, 100 μM and 1000 μM), and laminin (20 μg). […]

IC50 (CatG [1]; Table 6, read-out: CATG IC50): 90 nM
HS (Hill slope) (CatG [1]; Tris buffer pH 7.4, 37° C.): 1.5 ± 0.3
ΔY (efficacy) (CatG [1]; Tris buffer pH 7.4, 37° C.): 82.5 ± 7.4%
IC50 (CatG [1]; Tris buffer pH 7.4, 37° C., 100 mM NaCl, read-out: IC50): 90 ± 10 nM
Decrease in potency on 2-fold increase in salt concentration (CatG [2]; 100 vs 200 mM salt): ~10 fold
HS (Hill slope) (CatG [2]; [NaCl] 100 mM): 1.5 ± 0.3
IC50 (CatG [2]; [NaCl] 100 mM): 90 ± 10 nM
ΔY (efficacy) (CatG [2]; [NaCl] 100 mM): 82.5 ± 7.4%
Ki (CatG [2]; [NaCl] 100 mM): ~75 nM
HS (Hill slope) (CatG [2]; [NaCl] 200 mM): 1.5 ± 0.3
IC50 (CatG [2]; [NaCl] 200 mM): 920 ± 150 nM
ΔY (efficacy) (CatG [2]; [NaCl] 200 mM): 75.2 ± 3.4%
Ki (CatG [2]; [NaCl] 200 mM): ~910 nM
Protection of laminin from cleavage by CatG (CatG [3]): protected completely
Compound: O=C(Nc1cc(C(=O)Nc2ccc(S(=O)(=O)O)cc2S(=O)(=O)O)cc(C(=O)Nc2ccc(S(=O)(=O)O)cc2S(=O)(=O)O)c1)Nc1cc(C(=O)Nc2ccc(S(=O)(=O)O)cc2S(=O)(=O)O)cc(C(=O)Nc2ccc(S(=O)(=O)O)cc2S(=O)(=O)O)c1 [Formula II, 4,4′,4″,4′-((5,5′-(carbonylbis(azanediyl))bis(isophthaloyl))tetrakis(azanediyl))tetrakis(benzene-1,3-disulfonic acid)]
